Values quoted from earlier work, collected in patent US20080146534A1, “PHARMACEUTICAL COMPOSITION FOR REDUCING THE RISKS ASSOCIATED WITH CARDIOVASCULAR AND CEREBROVASCULAR DISEASES” (priority 2006, published 2008).

Settings: at clinical doses

O=C1CCc2cc(OCCCCc3nnnn3C3CCCCC3)ccc2N1 [Cilostazol, 6-[4-(1-cyclohexyl-1H-tetrazol-5-yl)butoxy]-3,4-dihydro-2(1H)-quinolinon]
increase in heart rate: about 7 beats/minute | ventricular premature beat (VPB) rate (small increase from 1/hour): 4 h⁻¹
